One molecule from US20190010531A1, “CELL CULTURE PROCESS FOR MAKING A GLYCOPROTEIN” (Regeneron Pharmaceuticals, Inc., priority 2017, published 2019) can be followed below.

For this experiment, the system named is CHO cells expressing a trap protein (receptor-Fc fusion protein, VEGF-trap). Conditions: 36.6 mg/L putrescine; VEGF-trap from CHO cells.

Consider `NCCCCN` [putrescine, 1,4-Diaminobutane], for which the “Al N-Glycan relative amount (% area under the curve)” value is listed as 9.0 % area under the curve.
